For series [1], the system named is hexokinase. Briefly: hexokinase-model: inhibition of hexokinase-catalysed 6-phosphorilation of glucose. The series is classed as biochemical. The source says: In vitro evaluation of 3-halo-phloretin compounds using the "hexokinase-model"
The "hexokinase-model" is used as a model system for the glucose-transport proteins, which play a paramount role in the glucose metabolism.
The mechanism of the glucose--glucosetransportprotein interaction and following transport through the cell membrane of glucose, as described in literature (Scientific American, January 1992, p. 32-39; Biochemistry, Vol. 28, No. 20, 1989, p. 8221-8227), and the induced-fit model described for glucose 6-phosphorilation by hexokinase (Cell Biology, 1989) show a certain analogy which let to assume, that the interaction between a potential glucose transport inhibitor with hexokinase can be a valuable in vitro model if this inhibition is competitive for glucose.
The substitution of halogen such as a bromine or iodine atom on the 3-position of the 4-hydroxyl-phenylpropion part of phloretin increases the inhibition potency as shown as follows:
Inhibition of hexokinase catalyses 6-phosphorilation of glucose by deoxyglucose, phloretin and 3-bromo-phloretin.

For series [2] the following is noted: weak acid; cited from earlier work.
The nature of series [3]: binding in human whole blood (RB/plasma distribution, reversibility). The series is classed as in vitro ADME. As to conditions: for blood plasma ratio at 0.25 h / blood plasma ratio: human; for blood plasma ratio at 0.25 h: 37° C., 15 min, read-out: RB/plasma ratio after re-equilibration. How it is done:
In vitro experiments: binding in human whole blood
Jennings et al. [J. Gen. Phys., 1967, 67, 381] have reported the binding of phloretin to whole red blood cells. Their results let to assume that phloretin should enter the erythrocytes and bind to haemoglobine. This should mean that a phloretin-based radiotracer should not be suitable for in vivo use. Therefore the reversibility of the binding is checked. For this purpose 3-^123 I-phloretin is added to whole heparinised blood. This is centrifuged, yielding serum S-*I and red blood portion RB-*I. S-*I and non-radioactive RB (1/1) and respectively non-radioactive S and RB-*I (1/1) are incubated at 37° C. for 15 min and centrifuged. The radioactivity of all the weighed aliquots is measured in a well NaI(T1) detector.

For series [4], the system named is erythrocytes. Briefly: binding of 3-125I-phloretin to erythrocytes. More on the design: species or system human. On the procedure:
(§1) In order to be able to compare the binding to cancer cells with the binding to normal cells, the following experiments are carried out. Binding to certain cancer cells, viz. YAK1 mice lymphoma cells (10^6 cells/ml incubation medium) is compared with binding to erythrocytes of a young healthy person (10^6 cells/ml incubation medium), because erythocytes are typical reference cells for glucose transport studies.
(§2) The incubation media are respectively:
(§3) RPMI-buffer pH=8; 11 mM in glucose, and
(§4) RPMI buffer/0.9% NaCl: 1/1.
(§5) Each 1 ml essay contains 5% of foetal calf serum and is spiked (50 μl) with 3-^125 I-phloretin (initial activity is measured).
(§6) After 15 min incubation at 37° C., the suspension is centrifuged and the precipitate is resuspended with 1 ml cold buffer which is discarded after a second centrifugation. The final radioactive precipitate is suspended in 1 ml water and measured. The bound radioactivity is related to the initial activity.
Saturation binding of 3-^125 I-phloretin to 5.10^6 erythrocytes is performed in RPMI-buffer and Tris-buffer of pH 8. The binding experiments are performed at pH 8, because this is the pH of the RPMI buffer needed for optimum YAK1 cells growth. Incubation for 15 min at 37° C. Inhibition is studied by pre-incubation (15 min, 37° C.) of the erythrocytes in buffer containing 2.10^-4 M 3-Br-phloretin. After centrifugation, the Br-phloretin-containing solution is discarded and the precipitate washed with ice-cooled buffer. After a second centrifugation, the supernatant is discarded and the cells are resuspended in buffer containing 3^125 I-phloretin. After incubation for 15 min at 37° C., the same above procedure is applied. Phloretin is a weak acid (pK is approx. 7.3); only the uncharged (non-dissociated) form inhibits red cell glucose transport (Jennings et al., see above). Therefore the values mentioned hereinafter are corrected for dissociation.
When starting from small amounts (0.1×10^-10 M) N.C.A. 3-^125 I-phloretin up to higher concentrations and C.A. conditions (3-Br-phloretin used as analogue), two types of binding are observed: […]

Series [5] concerns YAK1 mice lymphoma cells. Briefly: binding of 3-125I-phloretin to YAK1 lymphoma cells. On the procedure: as §1, §2, §3, §4, §5, §6
Series [6] can be described thus: in vivo distribution in rats. How it is done:
The in vivo distribution in rats is determined by injecting approx. 10 μCi of the compound to be evaluated into the tail vein of the test animals. The test animals are sacrificed at appropriate time intervals after injection and the radioactivity of the organs of interest is measured by gamma scintillation counting.

SMILES strings stand for the structures. Like-named read-outs stand apart in the source and are kept apart here.

In the case of `O=C(CCc1ccc(O)cc1)c1c(O)cc(O)cc1O` [phloretin, reference compound], the “type of inhibition of hexokinase activity” value in series [1] (Lineweaver-Burck plots, versus glucose) was “competitive”. Moreover, in series [2], the pK result is given as “approx. 7.3”.
Consider `O=C(CCc1ccc(O)c(I)c1)c1c(O)cc(O)cc1O` [3-I--phloretin, 3-I-phloretin], for which, in series [1] (versus phloretin), the “potency as hexokinase inhibitor relative to the original phloretin” value is “approx. 2 times”.
Consider `O=C(CCc1ccc(O)c([125I])c1)c1c(O)cc(O)cc1O` [3-^125 I-phloretin], for which the “reversibility of binding to plasma-proteins and RB” value in series [3] is on record as “bound reversibly”. Besides, the blood plasma ratio at 0.25 h in series [3] (N.C.A. radioactivity bound to RB, re-equilibrated with non-radioactive plasma) worked out at 0.15; in series [3] (N.C.A. radioactivity bound to plasma, re-equilibrated with non-radioactive RB), 0.13. The results for the blood plasma ratio in series [3] (in the presence of non-radioactive Br-phloretin or phloretin) and in series [3] (non-carrier-added (N.C.A.) conditions) were 0.32 and 0.215, respectively. Also, the bound/free ratio amounted to 0.021 in series [4] (N.C.A., 10^6 erythrocytes, 15 min 37° C., average of at least 20 experiments) and 0.048 in series [5] (N.C.A., 10^6 YAK1 cells, 15 min 37° C., average of at least 20 experiments). In addition, the “influence of glucose on binding” value in series [4] (presence of 3.10^-2 -5.10^-3 M glucose) is “hardly influences the binding”. Besides, in series [4] (saturation binding 0.1 to 1.2 10^-10 M, Scatchard plot, pH 8), the Bmax is 4.7×10^-15 mol/10^6 erythrocytee. For the same molecule, in series [4] (saturation binding 0.1 to 1.2 10^-10 M, Scatchard plot, pH 8, 15 min 37° C., corrected for dissociation, read-out: apparent Kd), the Kd turned out to be 0.08 nM. Moreover, the “increase of uptake in YAK1 lymphoma cancer cells as compared to erythrocytes” value in series [5] (YAK1 versus erythrocytes) is listed as more than 2 factor.
As to `O=C(CCc1ccc(O)c(Br)c1)c1c(O)cc(O)cc1O` [3-Br--phloretin, 3-bromophloretin], the “bound/free value of 3-125I-phloretin” value in series [4] (erythrocytes pre-incubated with 2×10^-4 M 3-Br-phloretin, blank 0.193, average of 5 experiments) is reported as 0.081. Also, in series [4] (pre-incubation with 2×10^-4 M 3-Br-phloretin, compared with blank), the “inhibition of 3-125I-phloretin binding” value is reported as 58%. Also, the “decreased binding of 3-125I-phloretin” value in series [5] (co-incubation of 3-Br-phloretin, YAK1 cells, 15 min) turned out to be 30%.
Turning to `O=C(CCc1ccc(O)c(I)c1)c1c(O)cc(O)cc1O` [3-*I-phloretin], the “saturability of uptake in heart and muscle” value in series [6] (decreased uptake in the presence of Br-phloretin) was “apparently saturable”. Besides, in series [6] (i.v. tail vein, N.C.A. and C.A.), the “uptake in the lungs (L/B)” value is recorded as “high uptake in the lungs”.

Values taken from patent US5741476A, “Polyhydric phenol compounds” (Mallinckrodt Medical, Inc., priority 1992, dated 1998).
